System: cellulase enzyme cocktail TEC210
Assay: Effect of gluconic acid on enzymatic hydrolysis of pretreated corn stover by TEC210
Type: biochemical, Rasamsonia
Settings: for Glucose release (in %): 6% w/w dm, pH 4.5, 62° C., 50 hours, 5 mg TEC210/g dm
Protocol: Twenty grams of pretreated corn stover were incubated in a 50 ml Greiner test tube for 50 hours at a dry matter level of 6% w/w, pH 4.5 at 62° C. in the presence of 5 mg of the cellulase enzyme cocktail TEC210 per gram of dry matter and in the presence of 0, 2, 4, 6, or 8 g/l gluconic acid to determine the inhibiting effect of gluconic acid on the hydrolysis of glucan in lignocellulosic feedstock. The experiment is performed at maximum oxygen saturation.
Samples were taken after 50 hours of incubation and the samples were centrifuged for further analysis in an Eppendorf centrifuge type 5810 for 8 minutes at 4000 rpm. The glucose concentration was measured in the supernatant of each sample by means of HPLC using a Bio-Rad HPX87H column. The glucose release as presented in Table 3 is a direct measure for the enzymatic hydrolysis (glucan hydrolysis). A gluconic acid level of 2 g/l in the supernatant corresponds with 89 g/kg glucan in the lignocellulosic material. This can be calculated as described above with a density of 1.02 kg/I, a pellet factor of 2% and a glucan content of 21.6 g glucan/kg hydrolysate.

O=C(O)[C@H](O)[C@@H](O)[C@H](O)[C@H](O)CO [Gluconic acid, gluconic acid]
Glucose release (in %) (gluconic acid added 2 g/l (89 g/kg glucan)): 90% | Glucose release (in %) (gluconic acid added 4 g/l (178 g/kg glucan)): 82% | Glucose release (in %) (gluconic acid added 6 g/l (267 g/kg glucan)): 79% | Glucose release (in %) (gluconic acid added 8 g/l (356 g/kg glucan)): 77% | effect on glucan hydrolysis (higher concentrations of gluconic acid): negative effect on glucan hydrolysis

From patent US11773420B2, “Process for enzymatic hydrolysis of lignocellulosic material and fermentation of sugars” (VERSALIS S.P.A., priority 2014, dated 2023)
